Assay results: PMC9865853, “Structural Insights Uncover the Specific Phosphoinositide Recognition by the PH1 Domain of Arap3” (International Journal of Molecular Sciences, 2023)

Target: T1, Arap3-PH1 (Homo sapiens, UniProt Q8WWN8)
T1 construct: first PH domain, residues 284-385, C-terminal 6xHis tag (pET22b), expressed in E. coli BL21(DE3)
T1 sequence (Q8WWN8 284-385): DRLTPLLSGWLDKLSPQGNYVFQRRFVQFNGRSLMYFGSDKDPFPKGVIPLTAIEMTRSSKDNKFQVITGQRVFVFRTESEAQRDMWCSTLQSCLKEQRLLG
Assay: SPR (Biacore T200, CM5, protein immobilised), one-site fit
Type: binding

Row | Structure (SMILES) | Kd
1 | CCCC(=O)OC[C@H](COP(=O)(O)O[C@H]1[C@H](O)[C@@H](OP(=O)(O)O)[C@H](OP(=O)(O)O)[C@@H](OP(=O)(O)O)[C@H]1O)OC(=O)CCC [diC4-PI(3,4,5)P3] | ~11.4 µM
2 | CCCC(=O)OC[C@H](COP(=O)(O)O[C@@H]1[C@H](O)[C@H](O)[C@@H](OP(=O)(O)O)[C@H](OP(=O)(O)O)[C@H]1O)OC(=O)CCC [diC4-PI(4,5)P2] | ~61.7 µM
